# ± gives the standard deviation of the averaged measurements.
# Experiments:
# Test in all cases: level (log10 ratio to DMSO vehicle control); higher = higher biomarker level / cell amount than vehicle control
# Settings in all cases: in DMSO
# [1] = compound: O=S(=O)(O)CCC(F)(F)C(F)(F)C(F)(F)C(F)(F)C(F)(F)C(F)(F)F [6:2 Fluorotelomer sulfonic acid]
# Protocol: (§1)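 BioMAP Diversity Plus panel of 12 human primary cell co-culture systems (3C, 4H, LPS, SAg, BT, BF4T, BE3C, CASM3C, HDF3CGF, KF3CT, MyoF, Mphg). Compounds were added 1 h before stimulation and left for 24 h (MyoF 48 h; BT 72 h for soluble read-outs or 6 d for IgG). Biomarkers were read by ELISA, cytotoxicity by SRB, PBMC viability and proliferation by Alamar Blue. Each well value was divided by the mean of 8 DMSO control wells on the same plate and log10 transformed; duplicate blinded samples were tested at 4 concentrations.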
# [2] = compound: O=C(O)C=CC(F)(C(F)(F)F)C(F)(F)F [3-(Perfluoroisopropyl)-2-propenoic acid]
# Protocol: as §1
# Nonafluoropentanamide = compound: NC(=O)C(F)(F)C(F)(F)C(F)(F)C(F)(F)F [Nonafluoropentanamide]
# Protocol: as §1
# Hexafluoroamylene glycol = compound: OCC(F)(F)C(F)(F)C(F)(F)CO [Hexafluoroamylene glycol]
# Protocol: as §1
# [3] = compound: FC(F)(F)C(F)(F)C(F)(F)C(F)(F)C(F)(F)C(F)(F)CC1CO1 [3-(Perfluorohexyl)-1,2-epoxypropane]
# Protocol: as §1
# [4] = compound: COC(=O)C(F)(F)C(F)(F)OC(F)(C(F)(F)F)C(F)(F)OC(F)=C(F)F [Methyl perfluoro(3-(1-ethenyloxypropan-2-yloxy)propanoate)]
# Protocol: as §1
# [5] = compound: O=S(=O)(F)C(F)(F)C(F)(F)C(F)(F)C(F)(F)C(F)(F)C(F)(F)C(F)(F)C(F)(F)F [Perfluorooctanesulfonyl fluoride]
# Protocol: as §1
Test System,level (log10) ([1]; 6700 nM),level (log10) ([1]; 20000 nM),level (log10) ([1]; 60000 nM),level (log10) ([2]; 6700 nM),level (log10) ([2]; 20000 nM),level (log10) ([2]; 60000 nM),level (log10) (Nonafluoropentanamide; 6700 nM),level (log10) (Nonafluoropentanamide; 20000 nM),level (log10) (Nonafluoropentanamide; 60000 nM),level (log10) (Hexafluoroamylene glycol; 6700 nM),level (log10) (Hexafluoroamylene glycol; 20000 nM),level (log10) (Hexafluoroamylene glycol; 60000 nM),level (log10) ([3]; 6700 nM),level (log10) ([3]; 20000 nM),level (log10) ([3]; 60000 nM),level (log10) ([4]; 6700 nM),level (log10) ([4]; 20000 nM),level (log10) ([5]; 6700 nM),level (log10) ([5]; 20000 nM),level (log10) ([5]; 60000 nM)
BF4T:PAI-I,0.0075 ± 0.005,-0.0235 ± 0.012,-0.0265 ± 0.0078,0 ± 0.0099,0.001 ± 0.0014,0.0155 ± 0.026,-0.0145 ± 0.0064,-0.0055 ± 0.0035,0.0015 ± 0.021,-0.0025 ± 0.013,-0.002 ± 0.021,0.0065 ± 0.0064,0.003 ± 0.0085,0.007,0.007 ± 0.018,-0.016 ± 0.0085,-0.0175 ± 0.021,0.004 ± 0.0014,-0.0005 ± 0.0035,0.02 ± 0.0085
BF4T:SRB,0.0005 ± 0.00071,-0.003 ± 0.0042,-0.003 ± 0.0057,-0.008 ± 0.011,-0.008 ± 0.0099,0.006 ± 0.018,-0.018 ± 0.0042,-0.017 ± 0.016,-0.019 ± 0.0028,0.0025 ± 0.018,0.002 ± 0.0085,0 ± 0.0057,-0.008 ± 0.011,-0.0105 ± 0.0078,0.0015 ± 0.019,-0.005 ± 0.016,0.0035 ± 0.026,-0.0025 ± 0.0035,-0.002 ± 0.0042,0.0145 ± 0.025
BF4T:tPA,-0.008 ± 0.027,-0.036 ± 0.028,-0.0355 ± 0.036,-0.004 ± 0.037,-0.0055 ± 0.022,0.03 ± 0.024,-0.021 ± 0.018,-0.043 ± 0.023,-0.0405 ± 0.0078,-0.017 ± 0.021,-0.0015 ± 0.0092,0.012 ± 0.038,0.0155 ± 0.039,-0.011 ± 0.0085,0.031 ± 0.034,-0.053 ± 0.025,-0.046 ± 0.0028,-0.003 ± 0.027,-0.0155 ± 0.016,-0.008 ± 0.0099
BF4T:uPA,0.0085 ± 0.019,-0.013 ± 0.0028,-0.001 ± 0.018,-0.007 ± 0.016,-0.016 ± 0.0057,0.0065 ± 0.018,-0.03 ± 0.023,0.009 ± 0.013,0.025 ± 0.0014,-0.0065 ± 0.021,-0.006 ± 0.014,0.004 ± 0.0057,-0.0045 ± 0.011,-0.0115 ± 0.0064,0.012 ± 0.04,-0.0075 ± 0.0064,0.02 ± 0.0028,0.007 ± 0.0028,0 ± 0.011,0.0095 ± 0.0092
BT:B cell Proliferation,0.0405 ± 0.066,0.031 ± 0.017,0.0625 ± 0.098,0.0085 ± 0.0021,-0.011 ± 0.0014,0.012 ± 0.037,0.032 ± 0.0028,-0.023 ± 0.0042,0.0085 ± 0.0092,0.0165 ± 0.013,0.0285 ± 0.0064,0.0195 ± 0.043,0.0065 ± 0.026,0.0035 ± 0.0035,-0.01 ± 0.0085,-0.009 ± 0.0099,0.01 ± 0.014,-0.0145 ± 0.016,-0.011 ± 0.013,0.008 ± 0.021
BT:Secreted IgG,0.0005 ± 0.054,-0.048 ± 0.031,-0.081 ± 0.048,-0.041 ± 0.048,-0.0035 ± 0.016,-0.0205 ± 0.013,-0.001 ± 0.0014,-0.006 ± 0.0099,-0.005 ± 0.014,0.022 ± 0.048,0.0275 ± 0.037,0.023 ± 0.017,-0.0085 ± 0.032,-0.0035 ± 0.018,-0.0005 ± 0.018,0.006 ± 0.0014,0.007 ± 0.03,0.0025 ± 0.026,0.0185 ± 0.0035,0.004 ± 0.03
BT:sIL-6,0.0255 ± 0.039,0.0375 ± 0.016,0.003 ± 0.052,0.032 ± 0.089,-0.0455 ± 0.056,-0.025 ± 0.03,-0.0015 ± 0.039,-0.0035 ± 0.036,-0.0665 ± 0.03,0.0575 ± 0.0078,0.015 ± 0.031,0.014 ± 0.021,0.007 ± 0.079,0.014 ± 0.025,-0.019 ± 0.02,0.016 ± 0.024,0.0175 ± 0.047,-0.055 ± 0.037,-0.021 ± 0.047,-0.037 ± 0.048
BT:sIL-17A,-0.135 ± 0.05,-0.005 ± 0.081,-0.126 ± 0.21,-0.01 ± 0.047,0.024 ± 0.14,-0.124 ± 0.13,-0.145 ± 0.18,0.05 ± 0.064,-0.213 ± 0.17,-0.089 ± 0.0014,-0.0745 ± 0.0064,0.0015 ± 0.05,-0.0215 ± 0.057,-0.0315 ± 0.12,-0.041 ± 0.11,0.033 ± 0.018,0.061 ± 0.17,-0.047 ± 0.098,-0.176 ± 0.021,-0.112 ± 0.021
BT:sIL-17F,0.0005 ± 0.064,0.0725 ± 0.012,0.0155 ± 0.011,-0.088 ± 0.081,-0.014 ± 0.054,0.0025 ± 0.043,-0.0305 ± 0.12,-0.0695 ± 0.14,-0.101 ± 0.15,0.0185 ± 0.069,0.028 ± 0.041,0.05 ± 0.033,-0.051 ± 0.15,-0.012 ± 0.096,-0.0315 ± 0.079,-0.027 ± 0.018,-0.064 ± 0.12,-0.0145 ± 0.032,-0.0345 ± 0.079,0.035 ± 0.12
BT:sTNF-alpha,-0.011 ± 0.031,0.0335 ± 0.07,-0.021 ± 0.04,-0.0275 ± 0.04,-0.149 ± 0.1,-0.028 ± 0.03,0.089 ± 0.086,0.031 ± 0.069,0.0565 ± 0.04,0.0165 ± 0.037,0.0085 ± 0.022,0.0215 ± 0.064,0.013 ± 0.11,0.128 ± 0.0064,0.0765 ± 0.14,-0.0085 ± 0.018,0.0935 ± 0.032,0.0075 ± 0.044,-0.0215 ± 0.0092,-0.041 ± 0.15
LPS:M-CSF,-0.0045 ± 0.015,0.004 ± 0.03,0.0485 ± 0.039,-0.011 ± 0.041,-0.0065 ± 0.0092,0.0035 ± 0.0035,0.0065 ± 0.07,-0.0075 ± 0.04,-0.011 ± 0.0042,-0.0075 ± 0.016,0.0115 ± 0.0078,-0.003 ± 0.035,-0.004 ± 0.0099,-0.013 ± 0.0028,0.0055 ± 0.0035,-0.0065 ± 0.013,-0.0105 ± 0.0064,-0.005 ± 0.021,0.0045 ± 0.0092,0.006 ± 0.017
LPS:SRB,-0.0055 ± 0.00071,-0.0005 ± 0.0064,-0.001 ± 0.023,-0.0015 ± 0.018,-0.011 ± 0.016,-0.0115 ± 0.028,0.0015 ± 0.011,-0.0065 ± 0.005,-0.003 ± 0.0042,-0.004 ± 0.0028,-0.0095 ± 0.015,0.002 ± 0.018,-0.0045 ± 0.0035,-0.003,-0.002 ± 0.0057,-0.012,-0.0085 ± 0.0078,-0.008 ± 0.0071,-0.0025 ± 0.0064,-0.002 ± 0.013
LPS:sPGE2,-0.008 ± 0.023,-0.0215 ± 0.047,-0.0345 ± 0.029,0.01 ± 0.065,0.046 ± 0.023,0.0575 ± 0.025,-0.0015 ± 0.013,-0.0115 ± 0.016,-0.022 ± 0.0099,-0.0265 ± 0.022,-0.0255 ± 0.071,-0.0325 ± 0.054,0.022 ± 0.0057,-0.0655 ± 0.0035,-0.047 ± 0.0099,-0.015 ± 0.021,0.0015 ± 0.029,0.0045 ± 0.039,-0.0015 ± 0.005,-0.0265 ± 0.056
SAg:CCL2/MCP-1,-0.019 ± 0.0085,-0.015 ± 0.0042,0.0035 ± 0.019,-0.003 ± 0.0042,-0.0005 ± 0.016,-0.0055 ± 0.0064,-0.0125 ± 0.0035,-0.0175 ± 0.012,0.0195 ± 0.053,-0.012,-0.002 ± 0.011,-0.016 ± 0.0099,-0.0075 ± 0.012,0.0005 ± 0.0021,0.003 ± 0.016,-0.01 ± 0.0085,0.011 ± 0.058,0.0135 ± 0.0035,-0.018 ± 0.0042,0.0035 ± 0.029
SAg:CD38,-0.0315 ± 0.012,-0.022 ± 0.04,-0.0505 ± 0.032,-0.0125 ± 0.026,0.001 ± 0.0071,-0.019 ± 0.0085,-0.0345 ± 0.037,-0.0265 ± 0.04,-0.032 ± 0.028,-0.02 ± 0.034,-0.03 ± 0.025,-0.0275 ± 0.046,0.001 ± 0.014,0.0035 ± 0.00071,-0.015 ± 0.0042,-0.0175 ± 0.13,0.038 ± 0.082,-0.0015 ± 0.039,0.0035 ± 0.0092,0.0145 ± 0.005
